From patent US9394238B2, “Process for the production of carnitine from β-lactones” (Lonza Ltd., priority 2010, dated 2016)

Assays:
rat = assay: Acute toxicity LD50 in rat; format: in vivo

With `O=C(O)/C=C/CO` [hydroxycrotonic acid] the Ames-Test (Ames-Test (mutagenicity)) was “negative” and the “LD50 (rat)” value (rat) was > 2000 mg/kg bw.
